Measurements taken from patent US9611292B2, “Peptide inhibitors of serotonin 5-HT2c receptors:PTEN interaction” (THE BOARD OF REGENTS OF THE UNIVERSITY OF TEXAS SYSTEM, priority 2011, dated 2017).
Entries after “also recorded” stand apart in the source; their conditions may differ.

Tests used:
rats = assay: 1-choice serial reaction time task, impulsive action (premature responses); assay type: in vivo, rat; conditions: 1-choice serial reaction time task, single agent
Description: FIG. 23 illustrates additional behavioral effects of TAT-3L4F.

5-HT2CR = assay: Cai++ release in 5-HT2CR-CHO cells; assay type: cell-based
Description: (§1) The 5-HT2CR:PTEN complex occurs in rat brain regions implicated in palatable food reward. […] These cells have been employed for 5-HT2CR signaling studies. […] Providing 3L4F and fragments thereof disrupt the complex in the cell and result in the lack of co-localization of the molecules by immunohistochemistry or by immunoprecipitation studies. 5-HT2CR and PTEN can be co-immunoprecipitated from brain tissue samples. Additional studies using the split luciferase assay also detect direct coupling of 5-HT2CR with PTEN.
Functional analysis of the complex was investigated using Cai^++ release in 5-HT2CR-CHO cells. […] The studies have shown that the 3L4F peptide enhances Cai^++ release via a 5-HT2CR specific mechanism acting down stream ligand binding.
FIG. 15 compares the efficacy of derivatives 210 and A1 in terms of % 1 nM 5-HT induced Cai^++ release in 5-HT2CR-CHO cells. FIG. 16 compares the efficacy of derivatives 210 and A2 in terms of % 1 nM 5-HT induced Cai^++ Release in 5-HT2CR-CHO cells. FIG. 17 compares the efficacy of derivatives 210 and A3 in terms of % 1 nM 5-HT induced Cai^++ release in 5-HT2CR-CHO cells. FIG. 18 compares the efficacy of derivatives 210 and A4 in terms of % 1 nM 5-HT induced Cai^++ release in 5-HT2CR-CHO cells. FIG. 19 compares the efficacy of derivatives 210 and A5 in terms of % 1 nM 5-HT induced Cai^++ release in 5-HT2CR-CHO cells. FIG. 20 compares the efficacy of derivatives 210 and A6 in terms of % 1 nM 5-HT induced Cai^++ release in 5-HT2CR-CHO cells. FIG. 21 compares the efficacy of derivatives 210 and A8 in terms of % 1 nM 5-HT induced […] release in 5-HT2CR-CHO cells.

5-HT2CR:PTEN complex = assay: in situ localization (immunohistochemistry / immunoprecipitation) of 5-HT2CR:PTEN association in cells; assay type: cell-based; conditions: for disrupting activity on 5-HT2CR:PTEN association: summary statement, assay not specified
Description: as §1
Peptides described herein enhance 5-HT2CR signaling and peptide disruption of the serotonin (5-HT) 5-HT2CR interaction with protein phosphatase and tensin (PTEN). This interaction is functionally important to the 5-HT2CR signalosome.

5-HT2CR:PTEN interaction = assay: split luciferase assay of direct 5-HT2CR:PTEN interaction in live cells; assay type: cell-based
Description: In addition split luciferase assays were used to detect direct coupling of 5-HT2CR with PTEN.

5-HT2AR = molecular target: T1, 5-HT2AR (Homo sapiens, UniProt P28223); assay: Cai++ release in 5-HT2AR-CHO cells; assay type: cell-based
T1 construct: expressed in transfected cells; host or cells: CHO
T1 sequence (P28223 whole entry): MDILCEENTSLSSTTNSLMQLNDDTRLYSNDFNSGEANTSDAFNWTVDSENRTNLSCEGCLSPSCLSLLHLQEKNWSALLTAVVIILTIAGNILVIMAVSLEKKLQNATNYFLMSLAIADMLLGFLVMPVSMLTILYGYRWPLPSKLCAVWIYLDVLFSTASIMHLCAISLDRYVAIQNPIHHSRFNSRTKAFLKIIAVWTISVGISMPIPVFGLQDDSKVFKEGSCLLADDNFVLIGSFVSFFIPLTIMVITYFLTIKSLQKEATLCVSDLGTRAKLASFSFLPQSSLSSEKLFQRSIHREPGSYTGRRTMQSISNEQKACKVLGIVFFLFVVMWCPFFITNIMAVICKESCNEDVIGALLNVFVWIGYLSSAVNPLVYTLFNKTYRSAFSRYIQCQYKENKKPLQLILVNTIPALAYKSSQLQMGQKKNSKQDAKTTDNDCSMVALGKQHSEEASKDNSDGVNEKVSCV

| Compound | 5-HT (1 nM) induced Cai++ release (5-HT2CR) | disrupting activity on 5-HT2CR:PTEN association (5-HT2CR:PTEN complex) | other results |
| --- | --- | --- | --- |
| c1cc2c3c(c1)[C@H]1CCC[C@H]1N3CCNC2 [WAY163909] | – | – | impulsive action (premature responses), agent alone (rats): neither of which have effects on their own |
| PNQDQNAR [derivative 210] | retain 3L4F activity; also recorded: increase | active fragment | – |
| PNQDQNARRRKKKERR [3L4F] | increases | disrupter | WAY163909 induced Cai++ release (5-HT2CR; selective orthosteric 5-HT2CR agonist WAY163909): potentiates; 3L4F-enhanced 5-HT induced Cai++ release, effect of 5-HT2CR antagonist (5-HT2CR; with 5-HT2CR antagonist): inhibits; direct 5-HT2CR:PTEN interaction (5-HT2CR:PTEN interaction; NLuc fused to 3rd intracellular loop of 5-HT2CR, CLuc fused to PTEN): disrupts; direct 5-HT2CR:PTEN interaction (5-HT2CR:PTEN interaction; NLuc fused to full length 5-HT2CR): disrupts; association of 5-HT2CR and PTEN (5-HT2CR:PTEN complex; quantitation of in situ localization studies): disrupts the association; 5-HT induced Cai++ release (5-HT2AR): does not alter |
| QNARRRKK [derivative 212] | less efficacious than 3L4 F | less disrupting activity than the 210 fragment | – |
| RRKKKERR [derivative 214] | less efficacious than 3L4 F | less disrupting activity than the 210 fragment | – |
| V27-R45: 5-HT2CR N-terminus peptide fragment V27-R45 (VSPVAAIVTDIFNTSDGGR) [reference compound] | inactive | – | – |
